This passage reports Ki results from patent publication US7491827B2, “Aryl sulfonamides useful as inhibitors of chemokine receptor activity” (Millennium Pharmaceuticals, Inc., priority 2003, dated 2009).

The pKi is −log10 of the Ki, conventionally taken in molar units.

pKi: −log10 of the molar value.

The assay deals with T1, cloned human CCR8 receptor stably expressed in L1.2 cells (Homo sapiens, UniProt P51685).
T1 construct: expressed in transfected cells
T1 sequence (P51685 whole entry): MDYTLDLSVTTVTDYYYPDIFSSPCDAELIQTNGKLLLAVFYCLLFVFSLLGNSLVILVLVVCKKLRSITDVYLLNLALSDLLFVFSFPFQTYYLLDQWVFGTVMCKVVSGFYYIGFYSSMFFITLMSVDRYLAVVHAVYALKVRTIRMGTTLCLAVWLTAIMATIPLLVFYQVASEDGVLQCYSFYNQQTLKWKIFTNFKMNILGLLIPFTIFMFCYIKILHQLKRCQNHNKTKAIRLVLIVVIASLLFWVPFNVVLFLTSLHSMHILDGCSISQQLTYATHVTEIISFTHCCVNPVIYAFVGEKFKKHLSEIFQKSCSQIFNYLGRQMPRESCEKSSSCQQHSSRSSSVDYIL
The assay can be described thus: whole cell binding screen: inhibition of biotinylated human I309 binding to CCR8 (FMAT 8100 HTS). The note with it: L1.2/hCCR8 cells, biotinylated human I-309, 10 point concentration response starting at 10 μM; read-out: Ki of compounds to inhibit I-309 binding to CCR8. Summed up: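 Ten-point dilutions, top 10 μM final, were tested for displacing biotin-I309 from hCCR8-transfected L1.2 cells in HEPES-buffered HBSS with BSA and sodium azide, mixing 0.5 h before FMAT 8100 detection. Signals converted to percent inhibition against untreated wells and a 100 nM excess unlabeled I309 control.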
For `Cc1ccccc1C(=O)Nc1ccc(S(=O)(=O)N[C@H]2CCN(C(=O)[C@H](C)N)C[C@H]2C)c2ccccc12` [Compound J-5, (3R, 4S)-N-{4-[1-(2-(S)-Amino-propionyl)-3-methyl-piperidin-4-ylsulfamoyl]-naphthalen-1-yl}-2-methyl-benzamide], the pKi was above 6.30.
To `Cc1ccccc1C(=O)Nc1ccc(S(=O)(=O)N[C@H]2CCN(C(=O)[C@@H](C)N)C[C@H]2C)c2ccccc12` [Compound J-6, (3R, 4S)-N-{4-[1-(2-(R)-Amno-propionyl)-3-methyl-piperidin-4-ylsulfamoyl]-naphthalen-1-yl}-2-methyl-benzamide] belongs above 6.30; to `Cc1ccccc1C(=O)Nc1ccc(S(=O)(=O)N[C@H]2CCN(C(=O)[C@H]3CCCN3)C[C@H]2C)c2ccccc12` [Compound J-7, (3R, 4S)-2-Methyl-N-{4-[3-methyl-1-((R)pyrrolidine-2-carbonyl)-piperidin-4-ylsuffamoyl]-naphthalen-1-yl}-benzamide], above 6.30.
Take `Cc1ccccc1C(=O)Nc1ccc(S(=O)(=O)N[C@H]2CCN(C(=O)C(C)(C)N)C[C@H]2C)c2ccccc12` [Compound J-8, (3R, 4S)-N-{4-[1-(2-Amino-2-methyl-propionyl)-3-methyl-piperidin-4-ylsuffamoyl]-naphthalen-1-yl}-2-methyl-benzamide]: the pKi was above 6.30.
To `Cc1ccccc1C(=O)Nc1ccc(S(=O)(=O)N[C@H]2CCN(C(=O)C3(N)CC3)C[C@H]2C)c2ccccc12` [Compound J-9, (3R, 4S)-N-{4-[1-(1-Amino-cyclopropanecarbonyl)-3-methyl-piperidin-4-ylsuffamoyl]-naphthalen-1-yl}-2-methyl-benzamide] belongs above 6.30; to `CC[C@@H]1CN(C(=O)[C@@H]2CCCN2)CC[C@H]1NS(=O)(=O)c1ccc(NC(=O)c2ccccc2C)c2ccccc12` [Compound J-30, (3R, 4R)-N-{4-[3-Ethyl-1-(pyrrolidine-2-(S)-carbonyl)-piperidin-4-ylsulfamoyl]-naphthalen-1-yl}-2-methyl-benzamide], above 6.30.
With `CC[C@H]1CN(C(=O)[C@@H]2CCCN2)CC[C@@H]1NS(=O)(=O)c1ccc(NC(=O)c2ccccc2C)c2ccccc12` [Compound J-31, (3S, 4S)-N-{4-[3-Ethyl-1-(pyrrolidine-2-(S)-carbonyl)-piperidin-4-ylsulfamoyl]-naphthalen-1-yl}-2-methyl-benzamide], the pKi is above 6.30.
As to `CC[C@@H]1CN(C(=O)[C@H](C)N)CC[C@H]1NS(=O)(=O)c1ccc(NC(=O)c2ccccc2C)c2ccccc12` [Compound J-32, (3R, 4R)-N-{4-[1-(2-(S)-Amino-propionyl)-3-ethyl-piperidin-4-ylsulfamoyl]-naphthalen-1-yl}-2-methyl-benzamide], the pKi is above 6.30.
To `CC[C@H]1CN(C(=O)[C@H](C)N)CC[C@@H]1NS(=O)(=O)c1ccc(NC(=O)c2ccccc2C)c2ccccc12` [Compound J-33, (3S, 4S)-N-{4-[1-(2-(S)-Amino-propionyl)-3-ethyl-piperidin-4-ylsulfamoyl]-naphthalen-1-yl}-2-methyl-benzamide] belongs above 6.30.
Consider `CCOC(=O)N1CC[C@H](NS(=O)(=O)c2ccc(NC(=O)c3ccccc3C)c3ncccc23)[C@H](C)C1` [Compound J-40, (3R, 4S)-3-Methyl-4-[8-(2-methyl-benzoylamino)-quinoline-5-sulfonylamino]-piperidine-1-carboxylic acid ethyl ester], for which the pKi was above 6.30.
On to `CCCC(=O)N1CC[C@H](NS(=O)(=O)c2ccc(NC(=O)c3ccccc3C)c3ncccc23)[C@H](C)C1` [Compound J-41, (3R, 4S)-N-[5-(1-Butyryl-3-methyl-piperidin-4-ylsulfamoyl)-quinolin-8-yl]-2-methyl-benzamide], for which the pKi was above 6.30.
To `CCOC(=O)N1CCC(NS(=O)(=O)c2ccc(NC(=O)c3ccccc3C)c3c2CN(CC)CC3)CC1` [Compound J-42, 4-[2-Ethyl-5-(2-methyl-benzoylamno)-1,2,3,4-tetrahydro-isoquinoline-8-sulfonylamino]-piperidine-1-carboxylic acid ethyl ester] belongs above 6.30; to `CCOC(=O)N1CCC(NS(=O)(=O)c2ccc(NC(=O)c3ccccc3C)c3c2CCCC3=O)CC1` [Compound J-43, 4-[4-(2-Methyl-benzoylamino)-5-oxo-5,6,7,8-tetrahydro-naphthalene-1-sulfonylamino]-piperidine-1-carboxylic acid ethyl ester], above 6.00.
To `Cc1ccccc1C(=O)Nc1ccc(S(=O)(=O)N[C@H]2CCNC[C@@H]2C)c2ccccc12` [Compound J-44] belongs above 6.30; to `CC[C@@H]1CNCC[C@@H]1NS(=O)(=O)c1ccc(NC(=O)c2ccccc2C)c2ccccc12` [Compound J-45], above 6.30; to `Cc1ccccc1C(=O)Nc1ccc(S(=O)(=O)NC2[C@@H](C)CNC[C@@H]2C)c2ccccc12` [Compound J-46], above 6.30.
To `CC[C@H]1CNCC[C@@H]1NS(=O)(=O)c1ccc(NC(=O)c2ccccc2C)c2ccccc12` [Compound J-47] belongs above 6.30.
On to `Cc1ccccc1C(=O)Nc1ccc(S(=O)(=O)NC2(C)CCNCC2)c2ccccc12` [Compound J-49], for which the pKi is above 6.30.
`Cc1ccccc1C(=O)Nc1ccc(S(=O)(=O)N[C@H]2CCNC[C@H]2C)c2ccccc12` [Compound J-50]: the pKi is above 6.30.
Turning to `Cc1ccccc1C(=O)Nc1ccc(S(=O)(=O)N[C@H]2CCNC[C@H]2CC(C)C)c2ccccc12` [Compound J-52], the pKi was above 6.30.
To `Cc1ccccc1C(=O)Nc1ccc(S(=O)(=O)N[C@@H]2[C@H](C)CNC[C@@H]2C)c2ccccc12` [Compound J-53] belongs above 5.30; to `Cc1ccccc1C(=O)Nc1ccc(S(=O)(=O)N[C@@H]2CCNC[C@H]2C)c2ccccc12` [Compound J-54], above 5.30; to `CCOC(=O)[C@@H]1CNCC[C@@H]1NS(=O)(=O)c1ccc(NC(=O)c2ccccc2C)c2ccccc12` [Compound J-55], above 5.30.
The result for `Cc1ccccc1C(=O)Nc1ccc(S(=O)(=O)N[C@H]2CCNC[C@@H]2CC(C)C)c2ccccc12` [Compound J-56] reads above 5.30.
